The results in this text go back to patent US12522590B2, “Brefeldin a derivatives, preparation method and use thereof” (OCEAN UNIVERSITY OF CHINA, priority 2019, dated 2026).

The structures appear in SMILES notation. ≈ marks a conversion by molar mass, not a printed value. Read-outs that look alike come from different tables or passages of the source. Bounds are passed on as bounds.

Series [1] relates to human lung cancer cells A549. Briefly: Cell proliferation assay (CCK-8). It counts as cell-based. The conditions noted are these: Homo sapiens, A549, 72 h. The text has this: (§1) CCK-8 method: The CCK-8 method is a highly sensitive, non-radioactive colorimetric assay for the determination of the number of viable cells in cell proliferation or cytotoxicity assays. The orange formazan dye produced by the bioreduction of CCK-8 by intracellular dehydrogenase is soluble in the cell culture medium, and the amount of formazan dye produced is proportional to the number of living cells. The kit used in this method is the tetrazolium salt-WST-8 (2-(2-methoxy-4-nitrophenyl)-3-(4-nitrophenyl)-5-(2,4-disulfophenyl)-2H-tetrazolium monosodium salt) developed by Dojindo Chemical Research Institute (Dojindo), which is capable of being reduced to a water-soluble formazan dye in the presence of the electronic carrier 1-Methoxy PMS.
(§2) Human cervical cancer cells Hela, pancreatic cancer cells PANC-1, esophageal cancer cells Eca-109, human leukemia cells K562, human lung cancer cells A549, human liver cancer cells HepG2, human gastric cancer cells MKN-45, human breast cancer cells MCF7 were cultured in DMEM medium containing 10% FBS (fetal bovine serum), 100 U/mL penicillin and 100 μg/ml streptomycin. Hepatocellular carcinoma cells Bel-7402 were cultured in RPMI-1640 medium containing 10% FBS (fetal bovine serum), 100 U/ml penicillin and 100 μg/ml streptomycin. All cells were placed in a cell culture incubator at 37° C. with 5% CO2. Cells fluid was changed every 3-5 days, and after 80% cell fusion, trypsin digestion and passaging were performed to keep the cells in good logarithmic growth phase.
(§3) All the samples to be tested were dissolved in DMSO.
(§4) Cells in logarithmic growth phase were inoculated in 96-well plates with 5000 cells/well respectively, and after 24 h of incubation, samples were added (final concentrations as shown in the table), and biplicate wells were set up for each sample. The amount of solvent of DMSO was not higher than 2‰. After 72 h, 10 μL of CCK-8 solution was added to each well and incubated for 1.5˜3 h at 37° C. The OD value at 450 nm was measured on an plate reader. Inhibition rate (%)=(1−[(OD450 dosed well−OD450 blank well)/(OD450 control well−OD450 blank well)])×100%
(§5) The fitted IC50 values were calculated using the log (inhibitor) vs. response—Variable slop analysis method in GraphPad Prism software.

The subject of series [2] is human breast cancer cells MCF7. As to the kind of experiment: Cell proliferation assay (CCK-8). It counts as cell-based. As to conditions: Homo sapiens, MCF7, 72 h.
From the text: as §1, §2, §3, §4, §5

The subject of series [3] is human liver cancer cells HepG2. Briefly: Cell proliferation assay (CCK-8). In kind it is cell-based. The conditions noted are these: Homo sapiens, HepG2, 72 h.
From the text: as §1, §2, §3, §4, §5

The subject of series [4] is Human cervical cancer cells Hela. As to the kind of experiment: Cell proliferation assay (CCK-8). In kind it is cell-based. As to conditions: Homo sapiens, 72 h.
From the text: as §1, §2, §3, §4, §5

Series [5] has as its system human gastric cancer cells MKN-45. As to the kind of experiment: Cell proliferation assay (CCK-8). In kind it is cell-based. As to conditions: Homo sapiens, MKN-45, 72 h.
From the text: as §1, §2, §3, §4, §5

For series [6], the system named is human leukemia cells K562. Briefly: Cell proliferation assay (CCK-8). In kind it is cell-based. The conditions noted are these: Homo sapiens, K562, 72 h.
From the text: as §1, §2, §3, §4, §5

Series [7] concerns esophageal cancer cells Eca-109. As to the kind of experiment: Cell proliferation assay (CCK-8). In kind it is cell-based, human. The conditions noted are these: Homo sapiens, Eca-109, 72 h.
From the text: as §1, §2, §3, §4, §5

Series [8] concerns pancreatic cancer cells PANC-1. Briefly: Cell proliferation assay (CCK-8). It counts as cell-based, human. As to conditions: Homo sapiens, PANC-1, 72 h.
From the text: as §1, §2, §3, §4, §5

The nature of series [9]: Solubility test (shake 37° C., 24 h, HPLC). In kind it is physicochemical. The conditions noted are these: thermodynamic from solid, x ± s. As for the experimental part: The term “solubility” refers to the mass of solute dissolved when a solid substance reaches saturation state in 100 g solvent at a certain temperature. Solubility test refer to the following references: ZHU Shang-bin, et al. Preparation, characterization, and physicochemical properties of arbutin phospholipid complex[J]. Chinese Traditional and Herbal Drugs. 2020, 1-10.
Methods: Excess BFA and the compounds disclosed herein were added to 10 mL of three solvents, methanol, acetone and 5% DMSO+95% H2O, respectively, and shaken on a shaker at 37° C. at 100 r/min for 24 h. After 24 h, the samples were centrifuged at 15 000 r/min for 15 min to remove the undissolved compounds. The supernatant was filtered using a 0.45 μm membrane filter. The supernatant was appropriately diluted with methanol and contents of the compounds were determined by HPLC method to calculate the solubility.

Setting [10] is: aqueous with cosolvent or surfactant or cyclodextrin, 5% DMSO + 95% H2O, n = 3, read-out: Solubility, 5% DMSO + 95% H2O.
Where [11] appears, read: organic solvent or mixture, acetone, n = 3, read-out: Solubility, Acetone.
[12] abbreviates: organic solvent or mixture, methanol, n = 3, read-out: Solubility, Methanol.

Regarding `COc1cccc2c1C(=O)c1c(O)c3c(c(O)c1C2=O)C[C@@](O)(C(=O)CO)C[C@@H]3O[C@H]1C[C@H](N)[C@H](O)[C@H](C)O1` [Adriamycin, reference compound], the half-maximal inhibitory concentration (IC50) (usually the midpoint of a concentration-inhibition curve) in series [1] is 100 to 1000 nM; in series [2], 1000 to 10000 nM; in series [3], more than 10000 nM; in [4], 100 to 1000 nM; in [5] it was 100 to 1000 nM; in series [6] it was 1000 to 10000 nM. The IC50 is 100 to 1000 nM in [7] and less than 100 nM in series [8].
Turning to `C[C@H]1CCC/C=C/[C@@H]2C[C@H](OC(=O)OCc3ccccn3)C[C@H]2[C@H](O)/C=C/C(=O)O1` [Compound 2, BFA-7-(pyridine-2-ylmethyl)carbonate], the IC50 in series [1] is 100 to 1000 nM; in [2], 100 to 1000 nM; in series [3], 100 to 1000 nM; in series [4], less than 100 nM; in series [5], 100 to 1000 nM; in series [6], 100 to 1000 nM. Further, the IC50 in series [7] and in series [8] was 100 to 1000 nM each time. For the same compound, the solubility (commonly the concentration that dissolves in the medium under given conditions) at 24 h was found to be 2.48 ± 1.55 mg/mL in [9] (setting [10]), 69.4 ± 2.23 mg/mL (≈ 167 mM) in series [9] (setting [11]) and 73.3 ± 3.52 mg/mL (≈ 176 mM) in [9] (setting [12]).
Turning to `C[C@H]1CCC/C=C/[C@@H]2C[C@H](OC(=O)OCc3ccncc3)C[C@H]2[C@H](O)/C=C/C(=O)O1` [Compound 3, BFA-7-(pyridine-4-ylmethyl)carbonate], the IC50 in [1] was 100 to 1000 nM; in [2], less than 100 nM; in [3], 100 to 1000 nM; in series [4] it was 100 to 1000 nM; in [5] it was less than 100 nM; in series [6] it was 100 to 1000 nM. Further, the IC50 in series [7] and in [8] was 100 to 1000 nM each time. Moreover, the solubility at 24 h in series [9] (setting [10]) stood at 2.65 ± 1.6 mg/mL; in series [9] (setting [11]), 69.6 ± 1.74 mg/mL (≈ 168 mM); in series [9] (setting [12]), 70.3 ± 4.35 mg/mL (≈ 169 mM).
Consider `C[C@H]1CCC/C=C/[C@@H]2C[C@H](OC(=O)OCc3cncc(F)c3)C[C@H]2[C@H](O)/C=C/C(=O)O1` [Compound 4, BFA-7-(5-fluoro-pyridine-3-ylmethyl)carbonate], for which the IC50 is 100 to 1000 nM in [1]; 100 to 1000 nM in series [2]; 100 to 1000 nM in series [3]; less than 100 nM in series [4]; 100 to 1000 nM in [5]; 100 to 1000 nM in series [6]. The values for the IC50 in series [7] and in [8] were 100 to 1000 nM and less than 100 nM, respectively. Moreover, the solubility at 24 h in series [9] (setting [10]) was determined as 2.72 ± 0.33 mg/mL; in series [9] (setting [11]) it was 63.8 ± 3.53 mg/mL (≈ 147 mM); in series [9] (setting [12]), 69.4 ± 3.51 mg/mL (≈ 160 mM).
As for `C[C@H]1CCC/C=C/[C@@H]2C[C@H](OC(=O)OCc3ccc(N)nc3)C[C@H]2[C@H](O)/C=C/C(=O)O1` [Compound 5], the IC50 in series [1] is 100 to 1000 nM; in series [2], 100 to 1000 nM; in [3], 100 to 1000 nM; in series [4] it was 100 to 1000 nM; in series [5], less than 100 nM; in [6], 100 to 1000 nM. Besides, the IC50 in series [7] is less than 100 nM; in series [8], 100 to 1000 nM.
For `Cc1ccc(COC(=O)O[C@@H]2C[C@H]3[C@H](O)/C=C/C(=O)O[C@@H](C)CCC/C=C/[C@@H]3C2)cn1` [Compound 7], the IC50 in [1], in series [2], in series [3], in [4], in series [5] and in [6] was 100 to 1000 nM in each case. The IC50 in series [7] and in [8] was 100 to 1000 nM each time.
